Assay results from patent US20050196375A1, “Methods of applying antibiotic compounds to polyurethane biomaterials using textile dyeing technology” (priority 2000, published 2005).

What was measured:
[1] = not given; remark: listed apart in the source

O=C(O)c1cn(C2CC2)c2cc(N3CCNCC3)c(F)cc2c1=O [cipro, ciprofloxacin]
standard affinity of cipro for cPU (T 318.15 K, RT ln K): 1.12 kcal/mol
saturation value (as quoted in the description): 0.45 g/kg
exhaustion of cipro on cPU ([1]; applied concentration 0.5% owf, pH 8.6, 20:1, 45° C., 3.5 hours): about 60%
ciprofloxacin taken up by cPU ([1]; dyeing temperature 55° C., pH 8.6, 20:1, 2% owf, 3.5 hours): 70%
cipro exhausted on cPU ([1]; dyeing time 3.5 hours, pH 8.6, 20:1, 2% owf, 45° C.): about 61%
